Test results published in US20040254162A1, “Oxazolidinone derivatives as antimicrobials” (priority 2001, published 2004).
≈ marks a conversion by molar mass, not a printed value.

Tests used:
[1] = Changes in MIC under different conditions: agar MIC; format: cell-based; conditions: strain not given
[2] = Changes in MIC under different conditions: broth MIC; format: cell-based; conditions: strain not given
MRSA 562 = test: In vivo activity against MRSA 562 (ED50); parameters: species or system Methicillin Resistant Staphylococcus aureus; conditions: PO; MRSA 562 infection
anaerobic bacteria = test: Agar dilution method for anaerobic bacteria, summary; format: cell-based
Clostridium camis = test: Agar dilution MIC, anaerobes; format: cell-based; conditions: Clostridium; single isolates, anaerobic agar dilution; read-out: MIC Clostridium camis
Clostridium perfringens = test: microbe, parasite or virus in culture; format: cell-based; conditions: Clostridium perfringens, read-out: MIC Clostridium perfringens, single isolates, anaerobic agar dilution
Clostridium difficile = test: Agar dilution MIC, anaerobes; format: cell-based; conditions: Clostridioides difficile, single isolates, anaerobic agar dilution; read-out: MIC Clostridium difficile
Prevotella bivia = test: Agar dilution MIC, anaerobes; format: cell-based; conditions: Prevotella bivia; single isolate, anaerobic agar dilution; read-out: MIC Prevotella bivia
Prevotella intermedia = test: Agar dilution MIC, anaerobes; format: cell-based; conditions: single isolates, anaerobic agar dilution
[3] = tested on: Prevotella melaninogenica; test: Agar dilution MIC, anaerobes; format: cell-based; conditions: single isolates, anaerobic agar dilution
Fusobacterium montiferum = test: Agar dilution MIC, anaerobes; format: cell-based; conditions: Fusobacterium, single isolates, anaerobic agar dilution; read-out: MIC Fusobacterium montiferum
Porphyromonas gingivalis = test: Agar dilution MIC, anaerobes; format: cell-based; conditions: Porphyromonas gingivalis; single isolate, anaerobic agar dilution; read-out: MIC Porphyromonas gingivalis
P. acnes = test: Agar dilution MIC, anaerobes; format: cell-based; conditions: Cutibacterium acnes, single isolates, anaerobic agar dilution; read-out: MIC P. acnes
[4] = tested on: Peptostreptococcus asaccharolyticus; test: Agar dilution MIC, anaerobes; format: cell-based; conditions: single isolates, anaerobic agar dilution
[5] = tested on: Peptostreptococcus magnum; test: Agar dilution MIC, anaerobes; format: cell-based; conditions: single isolates, anaerobic agar dilution
[6] = tested on: Peptostreptococcus micros; test: Agar dilution MIC, anaerobes; format: cell-based; conditions: single isolates, anaerobic agar dilution
[7] = tested on: Peptostreptococcus prevotii; test: Agar dilution MIC, anaerobes; format: cell-based; conditions: Anaerococcus prevotii, single isolates, anaerobic agar dilution; read-out: MIC Peptostreptococcus prevotii
Fusobacterium necrogenes = test: Agar dilution MIC, anaerobes; format: cell-based; conditions: Fusobacterium necrogenes; single isolate, anaerobic agar dilution; read-out: MIC Fusobacterium necrogenes
MRSE 879 = test: Broth MIC, MRSE 879; format: cell-based; conditions: Staphylococcus epidermidis; MRSE 879; read-out: broth MIC
[8] = tested on: Mycobacterium avium intracellulare; test: Agar dilution method, mycobacteria; format: cell-based
[9] = tested on: Mycobacterium tuberculosis
[10] = tested on: clinically relevant gram positive pathogens; conditions: nearly all clinically relevant gram positive pathogens; cited from earlier work
[11] = in vivo; cited from earlier work
MRSA 15187 = test: MIC, agar incorporation method; conditions: Staphylococcus aureus, MRSA, read-out: MIC MRSA 15187
MRSA 33 = test: MIC, agar incorporation method; conditions: Staphylococcus aureus, MRSA, read-out: MIC MRSA 33
Ent. faecalis ATCC 29212 = test: MIC, agar incorporation method; conditions: Enterococcus faecalis, ATCC29212, read-out: MIC E. faecalis 29212
VRE 6A (Ent. faecium 6A) = test: MIC, agar incorporation method; conditions: Enterococcus, VRE, read-out: MIC VRE 6A
Strep. pne. ATCC 6303 = test: MIC, agar incorporation method; conditions: Streptococcus pneumoniae, ATCC6303, read-out: MIC S. pneum 6303
G +ve bacteria = test: Summary of in vitro activity (MIC)
S. aureus = test: Summary of in vitro activity (MIC); conditions: Staphylococcus aureus
E. faecalis = test: Summary of in vitro activity (MIC); conditions: Enterococcus faecalis
S. pneumoniae = test: Summary of in vitro activity (MIC); conditions: Streptococcus pneumoniae
[12] = tested on: Mycobacterium tuberculosis; test: microbe, parasite or virus in culture; conditions: 504 h
[13] = read-out: Geometric Mean of in vitro activity (MIC)

CC(=O)NC[C@H]1CN(c2ccc(N3CCOCC3)c(F)c2)C(=O)O1 [Linezolid]
Agar MIC [1]: 2 µg/mL | Broth MIC +50% Sheep serum ([2]; +50% sheep serum): 2 µg/mL | Broth MIC Normal MH broth ([2]; normal MH broth): 1 µg/mL | ED50 (mg/kg body weight) PO (MRSA 562): 4.56 mg/kg body weight | MIC50 (anaerobic bacteria; 48 h): 1 µg/mL (≈ 2.96 µM) | MIC90 (anaerobic bacteria; 48 h): 4 µg/mL (≈ 11.9 µM) | Geometric Mean (anaerobic bacteria; anaerobes): 1.134 µg/mL | MIC Range (anaerobic bacteria; anaerobes): 0.25 to 4 µg/mL | MIC (Clostridium camis): 2 µg/mL (≈ 5.93 µM) | MIC (Clostridium perfringens): 2 µg/mL (≈ 5.93 µM) | MIC (Clostridium difficile): 2 µg/mL (≈ 5.93 µM) | MIC (Prevotella bivia): 1 µg/mL (≈ 2.96 µM) | MIC (Prevotella intermedia; Prevotella intermedia, read-out: MIC Prevotella intermedia): 0.5 µg/mL (≈ 1.48 µM) | MIC Prevotella intermedia (Prevotella intermedia): 1 µg/mL (≈ 2.96 µM) | MIC ([3]; Prevotella melaninogenica, read-out: MIC Prevotella melaninogenica): 1 µg/mL (≈ 2.96 µM) | MIC Prevotella melaninogenica [3]: 2 µg/mL (≈ 5.93 µM) | MIC (Fusobacterium montiferum): 0.25 µg/mL (≈ 0.741 µM) | MIC (Porphyromonas gingivalis): 1 µg/mL (≈ 2.96 µM) | MIC (P. acnes): 0.5 µg/mL (≈ 1.48 µM) | MIC ([4]; Peptoniphilus asaccharolyticus): 0.5 µg/mL (≈ 1.48 µM) | MIC Peptostreptococcus asaccharolyticus [4]: 1 µg/mL (≈ 2.96 µM) | MIC ([5]; Peptostreptococcus, read-out: MIC Peptostreptococcus magnum): 2 µg/mL (≈ 5.93 µM) | MIC Peptostreptococcus magnum [5]: 1 µg/mL (≈ 2.96 µM) | MIC ([6]; Parvimonas micra, read-out: MIC Peptostreptococcus micros): 0.5 µg/mL (≈ 1.48 µM) | MIC Peptostreptococcus micros [6]: 1 µg/mL (≈ 2.96 µM) | MIC [7]: 0.5 µg/mL (≈ 1.48 µM) | MIC (Fusobacterium necrogenes): 0.5 µg/mL (≈ 1.48 µM) | MIC (MRSE 879): 2 µg/mL (≈ 5.93 µM) | G.M. [8]: 20.587 µg/mL | MIC50 ([8]; Mycobacterium avium, 504 h, Middlebrook 7H10 agar, 21 days, read-out: MIC50): 16 µg/mL (≈ 47.4 µM) | MIC90 ([8]; Mycobacterium avium, 504 h, Middlebrook 7H10 agar, 21 days, read-out: MIC90): 64 µg/mL (≈ 190 µM) | G.M. [9]: 8 µg/mL | MIC90 [10]: 2 to 4 µg/mL | Cmax [11]: 12000 to 16000 ng/mL | MIC (MRSA 15187): 1 µg/mL (≈ 2.96 µM) | MIC (MRSA 33): 2 µg/mL (≈ 5.93 µM) | MIC (Ent. faecalis ATCC 29212): 2 µg/mL (≈ 5.93 µM) | MIC (VRE 6A (Ent. faecium 6A)): 2 µg/mL (≈ 5.93 µM) | MIC (Strep. pne. ATCC 6303): 2 µg/mL (≈ 5.93 µM) | MIC50 (G +ve bacteria): 2 µg/mL (≈ 5.93 µM) | MIC90 (G +ve bacteria): 4 µg/mL (≈ 11.9 µM) | MIC50 (S. aureus): 2 µg/mL (≈ 5.93 µM) | MIC90 (S. aureus): 4 µg/mL (≈ 11.9 µM) | MIC (S. aureus; [13]): 2.38 µg/mL (≈ 7.05 µM) | MIC50 (E. faecalis): 4 µg/mL (≈ 11.9 µM) | MIC90 (E. faecalis): 16 µg/mL (≈ 47.4 µM) | MIC (E. faecalis; [13]): 4 µg/mL (≈ 11.9 µM) | MIC50 (S. pneumoniae): 0.5 µg/mL (≈ 1.48 µM) | MIC90 (S. pneumoniae): 2 µg/mL (≈ 5.93 µM) | MIC (S. pneumoniae; [13]): 0.6 µg/mL (≈ 1.78 µM) | MIC50 [12]: 8 µg/mL (≈ 23.7 µM) | MIC90 [12]: 64 µg/mL (≈ 190 µM)
